Laboratory results published in paper PMC11062922 (Nature Chemical Biology, 2023).

How the values were obtained:
CHECK1 = target: T1, CHECK1 (Homo sapiens, UniProt O14757); experiment: Kinobeads two-dose competition binding: CHECK1; conditions: for CATDS: target CHEK1
T1 construct: endogenous in cells
T1 sequence (O14757 1-476): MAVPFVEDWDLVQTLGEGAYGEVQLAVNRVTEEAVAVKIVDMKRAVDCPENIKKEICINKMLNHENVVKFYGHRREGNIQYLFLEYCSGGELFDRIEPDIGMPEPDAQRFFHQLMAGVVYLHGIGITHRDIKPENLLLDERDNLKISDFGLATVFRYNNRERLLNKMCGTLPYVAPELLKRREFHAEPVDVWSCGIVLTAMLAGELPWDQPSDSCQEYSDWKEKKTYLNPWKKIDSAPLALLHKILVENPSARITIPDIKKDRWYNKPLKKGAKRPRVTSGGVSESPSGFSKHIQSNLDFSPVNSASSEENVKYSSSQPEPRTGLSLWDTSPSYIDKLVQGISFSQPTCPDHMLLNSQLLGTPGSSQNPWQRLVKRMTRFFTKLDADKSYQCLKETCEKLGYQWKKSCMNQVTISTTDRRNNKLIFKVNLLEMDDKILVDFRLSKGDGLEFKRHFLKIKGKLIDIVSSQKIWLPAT
Text: Briefly, Kinobeads comprise seven broad-spectrum small molecule kinase inhibitors immobilized on Sepharose beads. […]. Compounds of interest are set to compete for target protein binding with Kinobeads in the lysate and the amount of a given protein bound to Kinobeads in the presence of a compound can be quantified relative to a dimethylsulfoxide (DMSO) vehicle control by label-free mass spectrometry. This assay measures the physical interaction of a compound with thousands of endogenous proteins in parallel and, when systematically increasing the concentration of competitor, enables the calculation of an apparent interaction constant ( Kdapp ) for each compound and protein.
Kinobeads pulldown experiments were performed as described previously[13],[14],[17] with minor modification. […] The protein concentration was adjusted to 5 mg ml^−1. Kinase inhibitors were spiked into 0.5 ml of cell lysate at final concentrations of 100 and 1,000 nM (or DMSO, 0.3, 1, 3, 10, 30, 100, 300 and 1,000 nM for full dose experiments). […] Lysates were incubated for 45 min at 4 °C. Subsequently, lysates were incubated with Kinobeads ε (17.5 µl of settled beads) for 30 min at 4 °C. To assess the degree of protein depletion from the lysates by Kinobeads, the flow through of the DMSO control was recovered for a pulldown of pulldown experiment where the lysate was incubated a second time with fresh Kinobeads. Beads were washed in three steps with buffer containing 0.4%, 0.2% and no IGEPAL. Bound proteins were reduced with 50 mM DTT in 8 M Urea, 40 mM Tris-HCl pH 7.4 for 30 min at room temperature. After alkylation with 55 mM chloroacetamide, the urea concentration was reduced to 1–2 M and proteins were digested with trypsin. Acidified peptides were desalted and concentrated using SepPak tC18 µEluation plates (Waters). Samples were frozen, dried by vacuum centrifugation and stored at −20 °C.
Each kinase inhibitor was processed together with all DMSO controls of the same plate. Additionally, each search was supplemented with five high quality DMSO controls for consistent peptide identification and protein grouping. The resultant file (proteinGroups.txt) was used for subsequent filtering, normalization, data visualization and target annotation that was automatically performed by a data processing pipeline built in house that used R (including the ‘drc’ and ‘heatmap’ packages). First, reverse hits, potential contaminants and not quantified proteins in the DMSO control samples were discarded. Protein raw and label-free quantification intensities were normalized to the median DMSO control intensity to obtain relative residual binding intensities for each protein group at every inhibitor concentration and standard deviations of the DMSO control intensity were calculated. IC50 values were estimated based on the following equation IC50=I×100−inhibition/inhibition where [I] is the inhibitor concentration that was used for IC50 calculation and ‘inhibition’ the relative residual binding intensity. […]. Estimated Kdapp values were then calculated by multiplying the estimated IC50 values with a protein-dependent correction factor that was limited to a maximum value of one. The correction factor accounts for the depletion of a target protein from the lysate by Kinobeads. The depletion can be measured by the ratio of the amount of protein captured in two consecutive pulldowns of the same DMSO control lysate. In this study, correction factors were determined in separate experiments using the same lysate mixture and the same bead batch. Correction factors were set to the median of all correction factors. Targets of kinase inhibitors were annotated using the previously published random forest classifier. A training data set was annotated manually. […]

AAK1 = target: T2, AAK1 (Homo sapiens, UniProt Q2M2I8); experiment: Kinobeads two-dose competition binding: AAK1;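 also: kinobeads competition pulldown from cell lysate, compound preincubated 45 min at 4 °C, bead-bound protein measured by label-free mass spectrometry against DMSO vehicle control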
T2 construct: to maximize the representation of endogenous proteins; endogenous in cells
T2 sequence (Q2M2I8 whole entry): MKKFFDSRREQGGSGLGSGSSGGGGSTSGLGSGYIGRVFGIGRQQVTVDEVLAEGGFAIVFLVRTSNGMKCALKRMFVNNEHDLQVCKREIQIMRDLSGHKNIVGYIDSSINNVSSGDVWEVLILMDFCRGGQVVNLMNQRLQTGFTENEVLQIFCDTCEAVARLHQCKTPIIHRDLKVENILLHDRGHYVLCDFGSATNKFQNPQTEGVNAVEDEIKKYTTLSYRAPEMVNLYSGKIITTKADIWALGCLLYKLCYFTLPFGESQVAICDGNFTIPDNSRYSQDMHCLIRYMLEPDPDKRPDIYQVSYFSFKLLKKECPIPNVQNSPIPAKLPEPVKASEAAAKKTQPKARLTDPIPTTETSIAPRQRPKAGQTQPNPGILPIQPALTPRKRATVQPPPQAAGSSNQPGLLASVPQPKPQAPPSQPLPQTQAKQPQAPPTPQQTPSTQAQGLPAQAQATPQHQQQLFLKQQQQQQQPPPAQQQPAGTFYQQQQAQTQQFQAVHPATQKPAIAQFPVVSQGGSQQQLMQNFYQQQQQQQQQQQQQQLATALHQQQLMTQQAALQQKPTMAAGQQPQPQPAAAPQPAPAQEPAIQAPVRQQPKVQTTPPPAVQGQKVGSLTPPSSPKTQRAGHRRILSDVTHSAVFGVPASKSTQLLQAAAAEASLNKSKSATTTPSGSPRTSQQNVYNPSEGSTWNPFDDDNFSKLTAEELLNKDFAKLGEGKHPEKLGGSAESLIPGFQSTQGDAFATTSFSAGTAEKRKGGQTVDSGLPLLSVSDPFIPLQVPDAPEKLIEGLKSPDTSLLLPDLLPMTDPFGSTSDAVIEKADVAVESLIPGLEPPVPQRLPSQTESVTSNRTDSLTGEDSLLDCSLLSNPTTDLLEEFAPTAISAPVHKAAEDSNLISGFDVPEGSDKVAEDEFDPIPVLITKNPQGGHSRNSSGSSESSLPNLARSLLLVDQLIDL

ACAD11 = target: T3, ACAD11 (Homo sapiens, UniProt Q709F0); experiment: Kinobeads two-dose competition binding: ACAD11; conditions: sheet CATDS matrix 2; Gene Name ACAD11
T3 construct: endogenous in cells
T3 sequence (Q709F0 1-780): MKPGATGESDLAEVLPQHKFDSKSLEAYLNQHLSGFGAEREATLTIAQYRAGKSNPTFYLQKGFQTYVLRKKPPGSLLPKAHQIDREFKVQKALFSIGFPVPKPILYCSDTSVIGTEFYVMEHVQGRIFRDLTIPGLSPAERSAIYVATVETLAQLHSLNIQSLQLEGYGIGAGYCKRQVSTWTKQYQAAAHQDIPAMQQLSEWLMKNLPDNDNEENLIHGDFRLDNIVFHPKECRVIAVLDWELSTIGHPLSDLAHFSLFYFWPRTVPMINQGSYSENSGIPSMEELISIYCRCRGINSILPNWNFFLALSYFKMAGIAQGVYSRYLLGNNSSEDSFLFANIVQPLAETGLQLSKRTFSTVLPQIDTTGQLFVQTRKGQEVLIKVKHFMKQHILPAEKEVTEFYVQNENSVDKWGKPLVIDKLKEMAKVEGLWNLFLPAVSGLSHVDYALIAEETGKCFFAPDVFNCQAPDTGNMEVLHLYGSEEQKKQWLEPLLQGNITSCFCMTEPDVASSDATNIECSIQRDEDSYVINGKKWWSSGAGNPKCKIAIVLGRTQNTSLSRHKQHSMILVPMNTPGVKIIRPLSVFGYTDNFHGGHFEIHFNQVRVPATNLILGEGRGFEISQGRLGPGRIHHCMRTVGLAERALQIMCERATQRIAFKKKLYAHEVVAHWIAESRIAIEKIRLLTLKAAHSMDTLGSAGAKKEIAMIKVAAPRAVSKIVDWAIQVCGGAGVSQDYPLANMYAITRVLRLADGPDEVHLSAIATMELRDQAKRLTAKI

ATR = experiment: Kinobeads competition binding: ATR; parameters: species or system human; conditions: target ATR
EPHA5 = target: T4, EPHA5 (Homo sapiens, UniProt P54756); experiment: Kinobeads competition binding: EPHA5; conditions: target EPHA5
T4 construct: endogenous in cells
T4 sequence (P54756 25-1037): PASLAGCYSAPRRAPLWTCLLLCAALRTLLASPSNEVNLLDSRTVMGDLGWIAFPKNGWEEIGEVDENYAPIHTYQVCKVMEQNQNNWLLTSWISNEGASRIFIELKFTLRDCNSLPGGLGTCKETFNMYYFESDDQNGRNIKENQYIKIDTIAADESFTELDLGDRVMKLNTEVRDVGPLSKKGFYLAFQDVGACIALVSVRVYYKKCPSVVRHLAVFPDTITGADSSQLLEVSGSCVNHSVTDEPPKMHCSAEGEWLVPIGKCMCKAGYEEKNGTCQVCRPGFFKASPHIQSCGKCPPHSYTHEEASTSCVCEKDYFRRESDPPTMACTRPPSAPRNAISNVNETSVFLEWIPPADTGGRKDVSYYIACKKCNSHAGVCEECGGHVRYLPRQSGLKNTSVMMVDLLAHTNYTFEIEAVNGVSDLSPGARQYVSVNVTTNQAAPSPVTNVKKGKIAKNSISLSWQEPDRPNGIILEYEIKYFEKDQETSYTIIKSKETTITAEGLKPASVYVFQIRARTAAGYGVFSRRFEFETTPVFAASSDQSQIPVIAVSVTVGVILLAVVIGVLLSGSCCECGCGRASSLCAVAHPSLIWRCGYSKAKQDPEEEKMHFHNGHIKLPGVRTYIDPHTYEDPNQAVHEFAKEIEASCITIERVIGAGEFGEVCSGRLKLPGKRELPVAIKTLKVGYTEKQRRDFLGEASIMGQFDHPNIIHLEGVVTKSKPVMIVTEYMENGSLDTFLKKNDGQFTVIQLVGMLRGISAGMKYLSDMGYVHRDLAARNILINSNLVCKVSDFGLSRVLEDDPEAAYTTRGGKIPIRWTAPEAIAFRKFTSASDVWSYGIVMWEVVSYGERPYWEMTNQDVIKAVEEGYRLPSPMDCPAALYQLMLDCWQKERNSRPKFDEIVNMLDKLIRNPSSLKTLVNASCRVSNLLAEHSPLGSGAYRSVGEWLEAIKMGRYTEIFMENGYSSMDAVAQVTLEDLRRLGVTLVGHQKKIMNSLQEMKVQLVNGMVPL
Text: Supplement 41589_2023_1459_MOESM4_ESM.xlsx, sheet "CATDS matrix" | column: EPHA5

MARK2 = experiment: Kinobeads competition binding: MARK2; parameters: species or system human; conditions: target MARK2
[1] = sheet CATDS matrix 2, Gene Name AAK1

potency estimated from few doses (AAK1; sheet "Kinobeads Drugmatrix - all", unit inferred, same values below 1000 recur in sheet "nanomolar", read-out: Kinobeads Drugmatrix - all: apparent Kd, AAK1)	Structure (SMILES)	CATDS (CHECK1)	CATDS (AAK1; [1])	CATDS (AAK1; target AAK1)	CATDS (ACAD11)	CATDS (ATR)	CATDS (EPHA5)	CATDS (MARK2)	potency estimated from few doses (CHECK1; read-out: Lestaurtinib Drugmatrix value, Gene Name CHEK1)
–	Nc1ncnc2[nH]c(-c3ccccc3)nc12 [AH5015_KCGS]	0	0	0	0	0	0.02942	0	–
–	CCN1CCN(Cc2ccc(Nc3ncc(F)c(-c4cc(F)c5nc(C)n(C(C)C)c5c4)n3)nc2)CC1 [Abemaciclib]	0	0.04695	0.04695	0	0	0	0	–
–	CN(C)C/C=C/C(=O)Nc1cc2c(Nc3ccc(F)c(Cl)c3)ncnc2cc1O[C@H]1CCOC1 [Afatinib]	0	–	–	0	0	0	–	–
–	CCc1cc2c(cc1N1CCC(N3CCOCC3)CC1)C(C)(C)c1[nH]c3cc(C#N)ccc3c1C2=O [Alectinib]	0	0	0	0	0	0	0	–
–	N#CC1(c2ccc(NC(=O)c3cccnc3NCc3ccncc3)cc2)CCCC1 [Apatinib]	0	0	0	0	0	0	0	–
–	C#Cc1cccc(Nc2ncnc3cc(OC)c(OC4CCN(C)CC4)cc23)c1 [BI00007366]	–	0	–	0	–	–	–	–
662 nM	CC(C)N1CC(=O)N(C)c2cnc(Nc3cccc(S(=O)(=O)CCN4CCOCC4)c3)nc21 [BI00009348]	–	0.07467	–	0	–	–	–	–
–	C[C@]12O[C@H](C[C@]1(O)CO)n1c3ccccc3c3c4c(c5c6ccccc6n2c5c31)CNC4=O [Lestaurtinib]	–	–	–	–	–	–	–	98 nM
